Laboratory results reported in PMC12040169 (PLOS Biology, 2025).

Assay: in vitro
Conditions: human, hela cells, % viability

Going from `Cc1nc(CN2CCN(C(=O)C3C4CCCCC43)CC2)cs1` (stereo not drawn) [CBK281607] to `O=C([C@H]1CN2CCC1C[C@@H]2Cn1cc(COc2ccccc2)nn1)N1CCOCC1` (stereo partly drawn) [CBK288734], the viability at 28.5 h, 10 µM rises from 93.8% to 113%.

Compared with `CCNC(=O)c1c(O)nc2ccccc2c1O` [CBK262450], `Cc1nn(Cc2cccc3ccccc23)c(C)c1NC(=O)c1ccncc1` [CBK269990] is lower in viability at 28.5 h, 10 µM: 103% for the first, 93.4% for the second.

First: Cn1ccc2cc(-c3cn4ccnc4c(N4CCOCC4)n3)ccc21 [CBK066696]
Second: CC(C)CNc1ncc(-c2ccc(N3CCOCC3)cc2)n2ccnc12 [CBK091273]
The viability at 28.5 h, 10 µM of the first is lower: 89.1% for the first, 101% for the second.

First: COc1cccc(CCC(=O)Nc2cnc(-c3cccc(C(F)(F)F)c3)c(-c3cccnc3)n2)c1 [CBK036835]
Second: COCCNc1nc(-c2ccccc2)ccc1C(=O)Nc1cccc(OC)c1 [CBK105886]
The viability at 28.5 h, 10 µM of the first is lower: 90% for the first, 98.1% for the second.

Compared with `Nc1nc(OCCOc2ccccc2)cnc1-c1ccc2c(c1)OCO2` [CBK145097], `COc1ccccc1Cc1cccc(C2CCCN2C(=O)CCc2ccc(F)cc2)n1` (stereo not drawn) [CBK286238] is higher in viability at 28.5 h, 10 µM: 83.4% for the first, 101% for the second.

Going from `O=C(Cn1c(=O)n(Cc2cccs2)c2ncccc21)N1CCCC1` [CBK283894] to `CN1Cc2ccccc2CC1C(=O)N1CCc2ncc(Cl)cc2C1` (stereo not drawn) [CBK282568], the viability at 28.5 h, 10 µM rises from 83.6% to 85.5%.

Going from `Cc1c(S(=O)(=O)Nc2cc(C(F)(F)F)ccc2N2CCOCC2)cnn1-c1ccccc1` [CBK062551] to `O=S(=O)(Nc1nnn[nH]1)c1ccc(N2CCOCC2)nc1` [CBK062385], the viability at 28.5 h, 10 µM falls from 99.7% to 99%.

Going from `CCCn1c(SCc2csc(COc3ccc(Cl)cc3)n2)n[nH]c1=O` [CBK295140] to `Cc1ccc(OCc2nnc(SCC(=O)c3cccc([N+](=O)[O-])c3)n2C)cc1` [CBK268580], the viability at 28.5 h, 10 µM rises from 82.3% to 86.9%.

Going from `O=C1c2cccc3cccc(c23)C(=O)N1CCN1CCN(CC(O)COc2ccc(Cl)cc2Cl)CC1` (stereo not drawn) [CBK264881] to `O=C(NCC1CCCO1)c1ccc2c(c1)C(=O)N(c1ccccc1-c1ccccc1)C2=O` (stereo not drawn) [CBK262777], the viability at 28.5 h, 10 µM falls from 94.5% to 86%.

Going from `CS(=O)(=O)c1ccc(CN2CCOC3(CCN(C(=O)c4ccc5ccccc5c4)CC3)C2)cc1` [CBK161122A] to `CN1CCN(C(=O)Cn2cc(C(=O)Nc3ccc(F)cc3)ccc2=O)C(c2ccccc2)C1` (stereo not drawn) [CBK286050], the viability at 28.5 h, 10 µM falls from 104% to 81.9%.

First: COc1ncc(-c2ccc(NCC(C)C)nc2)c(OC)n1 [CBK036934]
Second: COc1ccc(-c2cnc(NS(C)(=O)=O)c(C(=O)Nc3cc(C)nn3C)c2)cc1 [CBK076528]
The viability at 28.5 h, 10 µM of the first is higher: 116% for the first, 88.2% for the second.

First: O=C(NCCc1ccc(F)cc1)C1CN(C(=O)c2ccc3nsnc3c2)C1 [CBK285690]
Second: Cc1cccc(C(=O)Nc2ccc(C(=O)NNC(=O)C(C)(C)C)cc2)c1 [CBK269073]
The viability at 28.5 h, 10 µM of the first is lower: 95.8% for the first, 111% for the second.

First: Cn1c2c(c3ccccc31)CCOC21CCN(CC2CCCCO2)CC1 (stereo not drawn) [CBK040649]
Second: Cn1c(CSc2nc3sc4c(c3c(=O)[nH]2)CCCC4)nnc1SC/C=C/c1ccccc1 [CBK264428]
The viability at 28.5 h, 10 µM of the first is lower: 87.9% for the first, 107% for the second.

Going from `COc1cncc(C(NC(=O)c2ccn3nnnc3c2)[C@H]2C[C@@H](O)C2)c1` (stereo partly drawn) [CBK306686] to `Cc1ccc(OCc2cc(-c3ccco3)on2)c([N+](=O)[O-])n1` [CBK233261], the viability at 28.5 h, 10 µM rises from 96.2% to 98.8%.

Compared with `COc1ccc(-c2cc(-c3ccccc3)nc(N/N=C/c3ccc(O)c(C)c3O)n2)cc1` [CBK261721], `CC(=O)N(C)c1ccc(NS(=O)(=O)c2cc(C)c(Cl)cc2C)cc1` [CBK045298] is lower in viability at 28.5 h, 10 µM: 101% for the first, 94.3% for the second.

Going from `CCC(C)(C)c1ccc(S(=O)(=O)N(CCC#N)Cc2cccnc2)cc1` [CBK043960] to `CCCCN1CCC(CNc2cc(C(F)(F)F)c3scc(C(=O)NC4CCC4)c3n2)CC1` [CBK034026C], the viability at 28.5 h, 10 µM rises from 89.6% to 103%.

Work on `NC(=O)c1c(NC(=O)C2CC(=O)OC23CCCCC3)sc2c1CCCCC2` (stereo not drawn) [CBK264189] yielded a viability at 28.5 h, 10 µM of 102%.
